Consider 4 molecules from patent EP0363224A1, “Treatment of periodontal disease” (BLOCK DRUG COMPANY INC., priority 1988, dated 1990).

Each structure is given as a SMILES string.

One test deals with cyclooxygenase. As to the kind of experiment: inhibition of cyclooxygenase conversion of radiolabeled arachidonic acid into prostaglandins in homogenate of inflamed gingival tissue. The test is classed as biochemical, humans. The note with it: comparison of IC₅₀ values.
Test [1] deals with naturally occurring periodontal disease. As to conditions: systemic doses, 12-month treatment, compared to untreated or periodontal surgery control groups; cited from earlier work.
The test system of a further test is alveolar bone resorption. The note with it: long-term therapy, compared to matched undosed control group; cited from earlier work.

Protocol for cyclooxygenase: Inflamed gingival tissues from the mouths of humans suffering from periodontal disease were used fresh or stored in liquid nitrogen until used. Tis­sues were pooled, homogenized in 0.2 M TRIS buffer, and centrifuged. Radiolabeled arachidonic acid (¹⁴C) was added to the centrifrugate into which various in­hibiting agents under study had been incorporated into separate aliquots, at various molar levels (log range of 10⁻³ to 10⁻⁹M). The reaction between arachidonic acid and test materials was carried out for 2 hours at 37°C.
Prostaglandins in the biological reaction mixtures were extracted and quantitatively determined by high performance liquid chromatography.

Consider `CC(C(=O)O)c1cccc(C(=O)c2ccccc2)c1` (stereo not shown) [2-methyl (3-benzoylphenyl) propanoic acid], for which, in the test with cyclooxygenase, the “effectiveness compared with other test materials” value is “slightly more effective than alpha tocopherol”. Consider `CC(C(=O)O)c1ccc(-c2ccccc2)c(F)c1` (stereo not shown) [Flurbiprofen], for which the alveolar bone loss result in test [1] is on record as “significant reduction in alveolar bone loss”. As for `COc1ccc2c(c1)c(CC(=O)O)c(C)n2C(=O)c1ccc(Cl)cc1` [Indomethacin], the “rate of alveolar bone resorption” value with alveolar bone resorption is “lower rate of alveolar bone resorption”.

Regarding `CC(=O)Oc1ccccc1C(=O)O` [aspirin], the “rate of alveolar bone resorption” value in the test with alveolar bone resorption was “lower rate of alveolar bone resorption”.
